Measured values published in patent US20250376498A1, “FUSION PROTEINS COMPRISING AN IMPROVED GLP-1 RECEPTOR AGONIST AND USES THEREOF” (Guangzhou Innogen Pharmaceutical Group Co., Ltd., priority 2022, published 2025).
“Also recorded” adds a separate entry of the source.

B1: YN-011: GLP-1 fusion protein of SEQ ID NO: 7: GLP-1 (A8G, G22E, R36G), linker peptide and IgG2/Fc domain (C222S, A330S, P331S) (protein)
chain: HGEGTFTSDVSSYLEEQAAKEFIAWLVKGGGSSGAPPPSGGGGSERKSCVECPPCPAPPVAGPSVFLFPPKPKDTLMISRTPEVTCVVVDVSHEDPEVQFNWYVDGVEVHNAKTKPREEQFNSTFRVVSVLTVVHQDWLNGKEYKCKVSNKGLPSSIEKTISKTKGQPREPQVYTLPPSREEMTKNQVSLTCLVKGFYPSDIAVEWESNGQPENNYKTTPPMLDSDGSFFLYSKLTVDKSRWQQGNVFSCSVMHEALHNHYTQKSLSLSPG

Key:
SH-SY5Y neuronal cells [1] = assay: TNF-α-induced apoptosis in SH-SY5Y cells (western blot Bcl-2, cleaved-caspase3); format: cell-based; details: 60 ng/ml TNF-α, 48 hours; YN-011 10, 100, 500 nM; GABA 1, 10, 100 μM; combination 100 μM GABA + 100 nM YN-011
Description: The experimental procedure is as follows: • 1) Digest SH-SY5Y neuronal cells in a 10 cm culture dish using 0.25% trypsin and seed them into a 12-well plate. • 2) Place the culture plate in a CO2 incubator for overnight pre-culture (37° C., 5% CO2) to allow cell adhesion. • 3) Using medium containing 5% FBS, treat the cells in each well with 60 ng/ml TNF-α alone or co-treated with 10, 100, or 500 nM YN-011. Incubate the cells at 37° C. for 48 hours. Each drug treatment is performed in three replicate wells. • 4) After 48 hours, discard the supernatant, gently wash the cells once with PBS, and place the cell culture plate on ice. Add 120 μl of RIPA cell lysis buffer (Beyotime P0013B) to each well, including protease and phosphatase inhibitors, and lyse the cells for 15 minutes. • 5) Transfer the cell lysate to a 1.5 ml EP tube and centrifuge at 14,000 rpm for 30 minutes. • 6) Carefully aspirate the supernatant into a new EP tube, add 5× loading buffer containing β-mercaptoethanol, and boil the samples at 100° C. for 10 minutes to denature the proteins. • 7) Perform SDS-PAGE gel electrophoresis with 10 μg of protein loaded per lane. Position the gel vertically against the power rack in the electrophoresis tank, ensuring that the concave side of the gel faces the power rack. Two gels can share one power rack. Fix the gel and power rack in the electrophoresis tank as required. […]

SH-SY5Y neuronal cells [2] = assay: TNF-α-induced damage in SH-SY5Y cells (Hoechst 33342 live cell staining); format: cell-based; details: 60 ng/ml TNF-α, 48 hours; YN-011 10, 100, 500 nM; GABA 1, 10, 100 μM; combination 100 μM GABA + 100 nM YN-011
Description: Digest the SH-SY5Y neuronal cells in a 10 cm culture dish using 0.25% trypsin to prepare a single-cell suspension. Seed the single-cell suspension into a 24-well plate. Place the culture plate in a CO2 incubator and pre-culture overnight at 37° C. with 5% CO2 to allow the cells to adhere. Treat the cells in each well with 20, 40, 60, or 80 ng/ml TNF-α using medium containing 5% FBS at 37° C. for 48 hours. Each drug treatment is performed in three replicate wells. Add the fluorescent dye Hoechst 33342 (Beyotime) at a dilution of 1:1000 to the wells, and incubate the plate at 37° C. for 10 minutes. Remove the culture medium, gently wash twice with PBS, and immediately take the plate to a fluorescence microscope for imaging (20× magnification). Capture 10 fields of view for each cell well and count the number of blue-stained positive cells in each field of view.
Please refer to section 8.7 for the experimental procedure, but the drug treatment in this experiment is different from that in section 8.7. In this experiment, the drug treatment is as follows: using medium containing 5% FBS, treat the cells in each well with 60 ng/ml TNF-α alone or co-treated with 10, 100, or 500 nM YN-011 at 37° C. for 48 hours. Each drug treatment is performed in three replicate wells. […]

Molecule	TNF-α-induced apoptosis in SH-SY5Y neuronal cells (western blot) (SH-SY5Y neuronal cells [1])	TNF-α-induced damage in neuronal cells (Hoechst 33342 positive cells) (SH-SY5Y neuronal cells [2])
NCCCC(=O)O [GABA, γ-aminobutyric acid]	reduces TNF-α-induced apoptosis; also recorded: reduction of TNF-α-induced apoptosis	protective effect
B1	significantly reduces TNF-α-induced apoptosis; also recorded: reduction of TNF-α-induced apoptosis	protective effect
